Results: the supplement of paper PMC10307832

Tests used:
Experiment in all cases: relative viability (nuclei count vs DMSO), 5 days (fraction); higher = more cells survive
NCI-H1915 = test system: NCI-H1915
Method in brief: (§1)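 Lung cancer cell lines in 1536-well plates were dosed by pin tool the day after seeding, either with one drug alone or with a fixed anchor-drug dose plus five library-drug doses (not always all listed) in √10 steps. After 5 days, cells were fixed and their nuclei stained in one step (final 0.05% Triton X-100, 1% formaldehyde, 1 ug/ml Hoechst), then counted on 4× images. Relative viability is the nuclei count in treated wells divided by that in vehicle wells. Values are medians of duplicate plates.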

NCI-H647 = test system: NCI-H647
Method in brief: as §1

NCI-H2023 = test system: NCI-H2023
Method in brief: as §1

PC-14 = test system: PC-14
Method in brief: as §1

NCI-H1734 = test system: NCI-H1734
Method in brief: as §1

NCI-H1563 = test system: NCI-H1563
Method in brief: as §1

NCI-H2085 = test system: NCI-H2085
Method in brief: as §1

EPLC-272H = test system: EPLC-272H
Method in brief: as §1

NCI-H2126 = test system: NCI-H2126
Method in brief: as §1

SK-LU-1 = test system: SK-LU-1
Method in brief: as §1

SW 1573 = test system: SW 1573
Method in brief: as §1

H3255 = test system: H3255
Method in brief: as §1

NCI-H2347 = test system: NCI-H2347
Method in brief: as §1

LXF-289 = test system: LXF-289
Method in brief: as §1

NCI-H727 = test system: NCI-H727
Method in brief: as §1

HOP-62 = test system: HOP-62
Method in brief: as §1

NCI-H1993 = test system: NCI-H1993
Method in brief: as §1

LCLC-97TM1 = test system: LCLC-97TM1
Method in brief: as §1

EMC-BAC-2 = test system: EMC-BAC-2
Method in brief: as §1

NCI-H661 = test system: NCI-H661
Method in brief: as §1

NCI-H322M = test system: NCI-H322M
Method in brief: as §1

NCI-H2009 = test system: NCI-H2009
Method in brief: as §1

**Q.** What does the source list for Cc1sc2c(c1C)C(c1ccc(Cl)cc1)=N[C@@H](CC(=O)OC(C)(C)C)c1nnc(C)n1-2 [JQ1] + COc1cc2c(Oc3ccc(NC(=O)C4(C(=O)Nc5ccc(F)cc5)CC4)cc3F)ccnc2cc1OCCCN1CCOCC1 [Foretinib] (partner 0.25 µM)?
**A.** relative viability (NCI-H1915; first compound 0.04 µM): 1.09; relative viability (NCI-H1915; first compound 0.1265 µM): 1.03; relative viability (NCI-H1915; first compound 0.4 µM): 0.732; relative viability (NCI-H1915; first compound 1.265 µM): 0.653; relative viability (NCI-H1915; first compound 4 µM): 0.449; relative viability (NCI-H647; first compound 0.04 µM): 1.21; relative viability (NCI-H647; first compound 0.1265 µM): 0.914; relative viability (NCI-H647; first compound 0.4 µM): 0.841; relative viability (NCI-H647; first compound 1.265 µM): 0.242; relative viability (NCI-H647; first compound 4 µM): 0.204; relative viability (NCI-H2023; first compound 0.04 µM): 0.779; relative viability (NCI-H2023; first compound 0.1265 µM): 0.816; relative viability (NCI-H2023; first compound 0.4 µM): 0.597; relative viability (NCI-H2023; first compound 1.265 µM): 0.252; relative viability (NCI-H2023; first compound 4 µM): 0.199; relative viability (PC-14; first compound 0.04 µM): 0.906; relative viability (PC-14; first compound 0.1265 µM): 0.645; relative viability (PC-14; first compound 0.4 µM): 0.625; relative viability (PC-14; first compound 1.265 µM): 0.582; relative viability (PC-14; first compound 4 µM): 0.477; relative viability (NCI-H1734; first compound 0.04 µM): 0.963; relative viability (NCI-H1734; first compound 0.1265 µM): 0.834; relative viability (NCI-H1734; first compound 0.4 µM): 0.872; relative viability (NCI-H1734; first compound 1.265 µM): 0.499; relative viability (NCI-H1734; first compound 4 µM): 0.531; relative viability (NCI-H1563; first compound 0.04 µM): 0.96; relative viability (NCI-H1563; first compound 0.1265 µM): 0.733; relative viability (NCI-H1563; first compound 0.4 µM): 0.756; relative viability (NCI-H1563; first compound 1.265 µM): 0.681; relative viability (NCI-H1563; first compound 4 µM): 0.692; relative viability (NCI-H2085; first compound 0.04 µM): 0.855; relative viability (NCI-H2085; first compound 0.1265 µM): 0.821; relative viability (NCI-H2085; first compound 0.4 µM): 0.578; relative viability (NCI-H2085; first compound 1.265 µM): 0.428; relative viability (NCI-H2085; first compound 4 µM): 0.37; relative viability (EPLC-272H; first compound 0.04 µM): 0.639; relative viability (EPLC-272H; first compound 0.1265 µM): 0.508; relative viability (EPLC-272H; first compound 0.4 µM): 0.454; relative viability (EPLC-272H; first compound 1.265 µM): 0.247; relative viability (EPLC-272H; first compound 4 µM): 0.191; relative viability (NCI-H2126; first compound 0.04 µM): 1.22; relative viability (NCI-H2126; first compound 0.1265 µM): 1.15; relative viability (NCI-H2126; first compound 0.4 µM): 1.03; relative viability (NCI-H2126; first compound 1.265 µM): 0.655; relative viability (NCI-H2126; first compound 4 µM): 0.693; relative viability (SK-LU-1; first compound 0.04 µM): 0.848; relative viability (SK-LU-1; first compound 0.1265 µM): 0.613; relative viability (SK-LU-1; first compound 0.4 µM): 0.787; relative viability (SK-LU-1; first compound 1.265 µM): 0.306; relative viability (SK-LU-1; first compound 4 µM): 0.153; relative viability (SW 1573; first compound 0.04 µM): 0.907; relative viability (SW 1573; first compound 0.1265 µM): 0.837; relative viability (SW 1573; first compound 0.4 µM): 0.777; relative viability (SW 1573; first compound 1.265 µM): 0.439; relative viability (SW 1573; first compound 4 µM): 0.384; relative viability (H3255; first compound 0.04 µM): 0.78; relative viability (H3255; first compound 0.1265 µM): 0.884; relative viability (H3255; first compound 0.4 µM): 0.987; relative viability (H3255; first compound 1.265 µM): 0.793; relative viability (H3255; first compound 4 µM): 0.442; relative viability (NCI-H2347; first compound 0.04 µM): 1.04; relative viability (NCI-H2347; first compound 0.1265 µM): 1.15; relative viability (NCI-H2347; first compound 0.4 µM): 1.02; relative viability (NCI-H2347; first compound 1.265 µM): 0.842; relative viability (NCI-H2347; first compound 4 µM): 0.393; relative viability (LXF-289; first compound 0.04 µM): 0.955; relative viability (LXF-289; first compound 0.1265 µM): 0.978; relative viability (LXF-289; first compound 0.4 µM): 0.762; relative viability (LXF-289; first compound 1.265 µM): 0.758; relative viability (LXF-289; first compound 4 µM): 0.69; relative viability (NCI-H727; first compound 0.04 µM): 0.841; relative viability (NCI-H727; first compound 0.1265 µM): 0.864; relative viability (NCI-H727; first compound 0.4 µM): 0.537; relative viability (NCI-H727; first compound 1.265 µM): 0.336; relative viability (NCI-H727; first compound 4 µM): 0.438; relative viability (HOP-62; first compound 0.04 µM): 0.982; relative viability (HOP-62; first compound 0.1265 µM): 0.848; relative viability (HOP-62; first compound 0.4 µM): 0.348; relative viability (HOP-62; first compound 1.265 µM): 0.241; relative viability (HOP-62; first compound 4 µM): 0.124; relative viability (NCI-H1993; first compound 0.04 µM): 0.794; relative viability (NCI-H1993; first compound 0.1265 µM): 0.794; relative viability (NCI-H1993; first compound 0.4 µM): 0.682; relative viability (NCI-H1993; first compound 1.265 µM): 0.692; relative viability (NCI-H1993; first compound 4 µM): 0.738; relative viability (LCLC-97TM1; first compound 0.04 µM): 0.909; relative viability (LCLC-97TM1; first compound 0.1265 µM): 0.949; relative viability (LCLC-97TM1; first compound 0.4 µM): 0.823; relative viability (LCLC-97TM1; first compound 1.265 µM): 0.617; relative viability (LCLC-97TM1; first compound 4 µM): 0.4; relative viability (EMC-BAC-2; first compound 0.04 µM): 1.04; relative viability (EMC-BAC-2; first compound 0.1265 µM): 0.868; relative viability (EMC-BAC-2; first compound 0.4 µM): 0.584; relative viability (EMC-BAC-2; first compound 1.265 µM): 0.376; relative viability (EMC-BAC-2; first compound 4 µM): 0.556; relative viability (NCI-H661; first compound 0.04 µM): 1.04; relative viability (NCI-H661; first compound 0.1265 µM): 0.945; relative viability (NCI-H661; first compound 0.4 µM): 1.03; relative viability (NCI-H661; first compound 1.265 µM): 0.7; relative viability (NCI-H661; first compound 4 µM): 0.668; relative viability (NCI-H322M; first compound 0.04 µM): 0.955; relative viability (NCI-H322M; first compound 0.1265 µM): 1.15; relative viability (NCI-H322M; first compound 0.4 µM): 0.753; relative viability (NCI-H322M; first compound 1.265 µM): 0.513; relative viability (NCI-H322M; first compound 4 µM): 0.441; relative viability (NCI-H2009; first compound 0.04 µM): 1.06; relative viability (NCI-H2009; first compound 0.1265 µM): 0.801; relative viability (NCI-H2009; first compound 0.4 µM): 0.786; relative viability (NCI-H2009; first compound 1.265 µM): 0.413; relative viability (NCI-H2009; first compound 4 µM): 0.352
